No end group written: not given here.

This data set is described as follows: In vitro plasma stability. In kind it is in vitro ADME, mouse (C57BL/6). To be noted: C57BL/6, mouse, read-out: half-life t1/2 (in vitro plasma) (converted). The procedure: Each aliquot (50 μl) was mixed with 150 μl methanol, vortexed, spun, removed the supernatant and reconstituted the pellet with 150 μl 10% formic acid in water. The sample was vortexed and spun and a 100 μl aliquot was taken, diluted 1:1 with 10 mM ammonium bicarbonate, and analyzed by LC-MS/MS. Using the remaining vs. time dataset, we performed a first-order decay analysis by fitting a linear regression to the natural log-transformed percent remaining values (excluding 0% and t = 0 anchor point) to plot the graph.

As to SSMKLSFRARAYGFRGPGPQL [CST, Catestatin], the half-life at 5 μg/ml is 334 min.

The values are drawn from article PMC12869562 (Research Square, 2026).
